Data: patent US11439707B2, “Hypocrellin derivative substituted both in a peri-position and in 2-position by amino, preparation method, and application thereof” (priority 2017, dated 2022)

Experiments:
[1] = absorption spectrum (maximum absorption wavelength, molar extinction coefficient); format: physicochemical
[2] = singlet oxygen efficiency test, reference rose bengal; format: physicochemical

Row | SMILES | maximum absorption wavelength [1] [nm] | molar extinction coefficient [1] | singlet oxygen yield [2] [%]
1 | CCCNc1c2c3c4c(c(OC)c(=O)c5c(O)cc(OC)c(c6c(OC)cc(NCCC)c(c1=O)c63)c54)C(C(C)=O)C(C)=C2 (stereo not drawn) [HB-33c] | 618 | 34,500 M^−1cm^−1 | 35
2 | CCCNc1c2c3c4c(c(OC)c(=O)c5c(NCCC)cc(OC)c(c6c(OC)cc(O)c(c1=O)c63)c54)C(C(C)=O)C(C)=C2 (stereo not drawn) [HB-33d] | 620 | 32,500 M^−1cm^−1 | 32
3 | COCCOCCC(=O)OCC1(Nc2c(NC3(COC(=O)CCOCCOC)CC3)c3c(=O)cc(OC)c4c5c(OC)cc(=O)c6c(O)c(OC)c7c(c(c2C=C(C)C7C(C)=O)c34)c65)CC1 (stereo not drawn) [HB-35a-PEG1] | 624 | 31,500 M^−1cm^−1 | 34
4 | COc1c(O)c2c(=O)cc(OC)c3c4c(OC)cc(=O)c5c(NC6(CO)CC6)c(NC6(CO)CC6)c6c(c(c1C(C(C)=O)C(C)=C6)c23)c54 (stereo not drawn) [HB-35a] | 621 | 30,500 M^−1cm^−1 | 32
5 | COCCOCCOCCOCCOCCOCCOCCC(=O)OCC1(Nc2c(O)c3c(=O)cc(OC)c4c5c(OC)cc(=O)c6c(NC7(COC(=O)CCOCCOCCOCCOCCOCCOCCOC)CC7)c(OC)c7c(c(c2C=C(C)C7C(C)=O)c34)c65)CC1 (stereo not drawn) [HB-35b-PEG6] | 624 | 30,500 M^−1cm^−1 | 32
6 | COc1c(NC2(CO)CC2)c2c(=O)cc(OC)c3c4c(OC)cc(=O)c5c(O)c(NC6(CO)CC6)c6c(c(c1C(C(C)=O)C(C)=C6)c23)c54 (stereo not drawn) [HB-35b] | 620 | 31,500 M^−1cm^−1 | 30
7 | COCCOCCOCCOCCOCCOCCOCCC(=O)OCC1(Nc2c3c4c5c(c(OC)c(=O)c6c(O)cc(OC)c(c7c(OC)cc(NC8(COC(=O)CCOCCOCCOCCOCCOCCOCCOC)CC8)c(c2=O)c74)c65)C(C(C)=O)C(C)=C3)CC1 (stereo not drawn) [HB-35c-PEG6] | 630 | 33,500 M^−1cm^−1 | 38
8 | COc1c2c3c4c(c(NC5(CO)CC5)c(=O)c5c(NC6(CO)CC6)cc(OC)c(c6c(OC)cc(O)c(c1=O)c63)c54)C=C(C)C2C(C)=O (stereo not drawn) [HB-35c] | 619 | 32,500 M^−1cm^−1 | 34
9 | COc1c2c3c4c(c(NC5(CO)CC5)c(=O)c5c(O)cc(OC)c(c6c(OC)cc(NC7(CO)CC7)c(c1=O)c63)c54)C=C(C)C2C(C)=O (stereo not drawn) [HB-35d] | 621 | 31,500 M^−1cm^−1 | 30
10 | CCNNc1c(NNCC)c2c(=O)cc(OC)c3c4c(OC)cc(=O)c5c(O)c(OC)c6c(c(c1C=C(C)C6C(C)=O)c23)c54 (stereo not drawn) [HB-36a] | 621 | 30,500 M^−1cm^−1 | 32
11 | CCNNc1c(O)c2c(=O)cc(OC)c3c4c(OC)cc(=O)c5c(NNCC)c(OC)c6c(c(c1C=C(C)C6C(C)=O)c23)c54 (stereo not drawn) [HB-36b] | 622 | 31,500 M^−1cm^−1 | 30
12 | CCNNc1c2c3c4c(c(OC)c(=O)c5c(O)cc(OC)c(c6c(OC)cc(NNCC)c(c1=O)c63)c54)C(C(C)=O)C(C)=C2 (stereo not drawn) [HB-36c] | 621 | 33,500 M^−1cm^−1 | 35
13 | CCNNc1c2c3c4c(c(OC)c(=O)c5c(NNCC)cc(OC)c(c6c(OC)cc(O)c(c1=O)c63)c54)C(C(C)=O)C(C)=C2 (stereo not drawn) [HB-36d] | 621 | 32,000 M^−1cm^−1 | 32
14 | COc1c(O)c2c(=O)cc(OC)c3c4c(OC)cc(=O)c5c(NCc6cccc[n+]6C)c(NCc6cccc[n+]6C)c6c(c(c1C(C(C)=O)C(C)=C6)c23)c54 (stereo not drawn) [HB-38a-N^+] | 620 | 22,000 M^−1cm^−1 | 18
15 | COc1c(O)c2c(=O)cc(OC)c3c4c(OC)cc(=O)c5c(NCc6cccc[n+]6CCCC(=O)O)c(NCc6cccc[n+]6CCCC(=O)O)c6c(c(c1C(C(C)=O)C(C)=C6)c23)c54 (stereo not drawn) [HB-38a-N—COOH] | 620 | 22,000 M^−1cm^−1 | 20
16 | COc1c(O)c2c(=O)cc(OC)c3c4c(OC)cc(=O)c5c(NCc6ccccn6)c(NCc6ccccn6)c6c(c(c1C(C(C)=O)C(C)=C6)c23)c54 (stereo not drawn) [HB-38a] | 624 | 19,000 M^−1cm^−1 | 16
17 | COc1c(NCc2cccc[n+]2C)c2c(=O)cc(OC)c3c4c(OC)cc(=O)c5c(O)c(NCc6cccc[n+]6C)c6c(c(c1C(C(C)=O)C(C)=C6)c23)c54 (stereo not drawn) [HB-38b-N^+] | 620 | 21,000 M^−1cm^−1 | 20
18 | COc1c(NCc2cccc[n+]2CCCC(=O)O)c2c(=O)cc(OC)c3c4c(OC)cc(=O)c5c(O)c(NCc6cccc[n+]6CCCC(=O)O)c6c(c(c1C(C(C)=O)C(C)=C6)c23)c54 (stereo not drawn) [HB-38b-N—COOH] | 620 | 21,500 M^−1cm^−1 | 18
19 | COc1c(NCc2ccccn2)c2c(=O)cc(OC)c3c4c(OC)cc(=O)c5c(O)c(NCc6ccccn6)c6c(c(c1C(C(C)=O)C(C)=C6)c23)c54 (stereo not drawn) [HB-38b] | 621 | 18,500 M^−1cm^−1 | 16
20 | COc1c2c3c4c(c(NCc5cccc[n+]5C)c(=O)c5c(NCc6cccc[n+]6C)cc(OC)c(c6c(OC)cc(O)c(c1=O)c63)c54)C=C(C)C2C(C)=O (stereo not drawn) [HB-38c-N^+] | 622 | 22,500 M^−1cm^−1 | 21
21 | COc1c2c3c4c(c(NCc5cccc[n+]5CCCC(=O)O)c(=O)c5c(NCc6cccc[n+]6CCCC(=O)O)cc(OC)c(c6c(OC)cc(O)c(c1=O)c63)c54)C=C(C)C2C(C)=O (stereo not drawn) [HB-38c-N—COOH] | 622 | 21,500 M^−1cm^−1 | 21
22 | COc1c2c3c4c(c(NCc5ccccn5)c(=O)c5c(NCc6ccccn6)cc(OC)c(c6c(OC)cc(O)c(c1=O)c63)c54)C=C(C)C2C(C)=O (stereo not drawn) [HB-38c] | 628 | 20,000 M^−1cm^−1 | 18
23 | COc1c2c3c4c(c(NCc5cccc[n+]5C)c(=O)c5c(O)cc(OC)c(c6c(OC)cc(NCc7cccc[n+]7C)c(c1=O)c63)c54)C=C(C)C2C(C)=O (stereo not drawn) [HB-38d-N^+] | 626 | 21,500 M^−1cm^−1 | 20
24 | COc1c2c3c4c(c(NCc5cccc[n+]5CCCC(=O)O)c(=O)c5c(O)cc(OC)c(c6c(OC)cc(NCc7cccc[n+]7CCCC(=O)O)c(c1=O)c63)c54)C=C(C)C2C(C)=O (stereo not drawn) [HB-38d-N—COOH] | 626 | 21,000 M^−1cm^−1 | 20
25 | COc1c2c3c4c(c(NCc5ccccn5)c(=O)c5c(O)cc(OC)c(c6c(OC)cc(NCc7ccccn7)c(c1=O)c63)c54)C=C(C)C2C(C)=O (stereo not drawn) [HB-38d] | 624 | 18,500 M^−1cm^−1 | 17
